The test system of one experiment is HT1080 cells. Nature of the experiment: Cellular assay for IDH1m inhibitors: inhibition of 2-HG production (LC-MS, 48 hours) in HT1080 cells. Type of experiment: cell-based. The note with it: Homo sapiens, HT-1080; inhibition of 2-HG production, HT1080 cells; read-out: HT1080 IC50. The gist of the method:
(§1)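 The read-out is 2-HG in culture medium, measured by LC-MS after 48 h of compound exposure (0.2% DMSO) in cells plated overnight at 5000 per well in DMEM/10% FBS. IC50 is 50% reduction relative to DMSO wells. Luminescent viability (Cell Titer Glo) followed at 72 h.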

The next experiment has as its target IDH1 R132H (Homo sapiens, UniProt O75874, R132H). Briefly: Assay for IDH1 R132H inhibitors (NADPH/aKG, resazurin detection). The conditions noted are these: enzyme assay of Example 12; read-out: IDH1R132H IC50. The format is biochemical. The procedure, abridged:
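Compound added to substrate mix (8 uM NADPH, 2 mM aKG), then enzyme mix (0.2 μg/ml IDH1 R132H); 50 min RT in 20 mM Tris pH 7.5, 150 mM NaCl, 10 mM MgCl2, 0.03% BSA. Resazurin detection mix (30 μM) 5 min RT; resorufin fluorescence Ex544/Em590.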
(In general: Resazurin is reduced to fluorescent resorufin, in cell work by metabolically active cells.)

The subject of the next experiment is U87MG cells. Briefly: Cellular assay for IDH1m inhibitors: inhibition of 2-HG production (LC-MS, 48 hours) in U87MG cells. The format is cell-based. The note with it: Homo sapiens, U-87 MG, inhibition of 2-HG production, U87R132H cells; read-out: U87R132H IC50. The gist of the method: as §1

Some results are limits rather than exact numbers.

Chain of IDH1 R132H (O75874 whole entry R132H): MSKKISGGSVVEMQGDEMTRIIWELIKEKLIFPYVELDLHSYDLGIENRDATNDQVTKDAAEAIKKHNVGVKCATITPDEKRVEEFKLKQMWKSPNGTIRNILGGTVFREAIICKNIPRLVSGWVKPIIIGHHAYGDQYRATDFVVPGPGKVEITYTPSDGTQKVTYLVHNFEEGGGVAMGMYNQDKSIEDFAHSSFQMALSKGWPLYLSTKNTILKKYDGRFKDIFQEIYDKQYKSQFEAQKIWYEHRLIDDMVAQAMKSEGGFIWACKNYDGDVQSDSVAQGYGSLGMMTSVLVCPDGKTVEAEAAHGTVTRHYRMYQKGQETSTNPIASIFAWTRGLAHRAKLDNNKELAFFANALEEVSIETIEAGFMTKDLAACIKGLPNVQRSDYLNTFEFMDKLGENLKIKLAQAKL

A word on the IC50: it is the point on the concentration scale where inhibition reaches its midpoint. With `C=Cc1cc(Nc2cc(C#N)c(N3CCN(C(=O)CCO)[C@H](C4CC4)C3)nc2C2CC2)ccn1` [Compound 676, (R)-6-cyclopropyl-2-(3-cyclopropyl-4-(3-hydroxypropanoyl)piperazin-1-yl)-5-((2-vinylpyridin-4-yl)amino)nicotinonitrile], the IC50 with HT1080 cells, at IDH1 R132H and with U87MG cells was below 500 nM in each case.
Turning to `C=Cc1cc(Nc2cc(C#N)c(N3CCN(C(=O)CCOC)[C@H](C4CC4)C3)nc2C2CC2)ccn1` [Compound 678, (R)-6-cyclopropyl-2-(3-cyclopropyl-4-(3-methoxypropanoyl)piperazin-1-yl)-5-((2-vinylpyridin-4-yl)amino)nicotinonitrile], the IC50 in the experiment with HT1080 cells, at IDH1 R132H and with U87MG cells was below 500 nM throughout.
For `C=Cc1cc(-c2cc(C#N)c(N3CCN(C(=O)CCO)[C@H](C(C)C)C3)nc2C2CC2)c2ccncc2n1` [Compound 681, (R)-6-cyclopropyl-2-(4-(3-hydroxypropanoyl)-3-isopropylpiperazin-1-yl)-5-(2-vinyl-1,7-naphthyridin-4-yl)nicotinonitrile], the IC50 in the experiment on HT1080 cells, at IDH1 R132H and in the experiment on U87MG cells was below 500 nM throughout.
In the case of `C=Cc1cc(-c2cc(C#N)c(N3CCN(C(=O)CCO)[C@H](C4CC4)C3)nc2C2CC2)cnn1` [Compound 686, (R)-6-cyclopropyl-2-(3-cyclopropyl-4-(3-hydroxypropanoyl)piperazin-1-yl)-5-(6-vinylpyridazin-4-yl)nicotinonitrile], the IC50 in the experiment with HT1080 cells, on IDH1 R132H and in the experiment with U87MG cells was below 500 nM each time.
In the case of `C=Cc1cc(-c2cc(C#N)c(N3CCN(C(=O)CCO)[C@H](C4CC4)C3)nc2C2CC2)c2ccncc2n1` [Compound 688, (R)-6-cyclopropyl-2-(3-cyclopropyl-4-(3-hydroxypropanoyl)piperazin-1-yl)-5-(2-vinyl-1,7-naphthyridin-4-yl)nicotinonitrile], the IC50 in the experiment on HT1080 cells, on IDH1 R132H and in the experiment with U87MG cells was below 500 nM throughout.
On to `C=Cc1cc(-c2cc(C#N)c(N3CCN(C(=O)C4CC4)[C@H](C4CC4)C3)nc2C2CC2)c2ccncc2n1` [Compound 689, (R)-2-(4-(cyclopropanecarbonyl)-3-cyclopropylpiperazin-1-yl)-6-cyclopropyl-5-(2-vinyl-1,7-naphthyridin-4-yl)nicotinonitrile], for which the IC50 with HT1080 cells, at IDH1 R132H and with U87MG cells was below 500 nM in each case.
For `C=Cc1cc(N(C)c2cc(C#N)c(N3CCN(C(=O)CCOC)[C@H](C)C3)nc2C2CC2)ccn1` [Compound 690, (R)-6-cyclopropyl-2-(4-(3-methoxypropanoyl)-3-methylpiperazin-1-yl)-5-(methyl(2-vinylpyridin-4-yl)amino)nicotinonitrile], the half-inhibitory concentration (IC50) with HT1080 cells, on IDH1 R132H and with U87MG cells was below 500 nM in each case.
For the compound `C=Cc1cc(Oc2cc(C#N)c(N3CCN(C(=O)CCO)[C@H](C4CC4)C3)nc2C2CC2)ccn1` [Compound 692, (R)-6-cyclopropyl-2-(3-cyclopropyl-4-(3-hydroxypropanoyl)piperazin-1-yl)-5-(2-vinylpyridin-4-yloxy)nicotinonitrile], the IC50 in the experiment on HT1080 cells, on IDH1 R132H and with U87MG cells was below 500 nM in each case.
Turning to `C=Cc1cc(Oc2cc(C#N)c(N3CCN(C(=O)CCOC)[C@H](C4CC4)C3)nc2C2CC2)ccn1` [Compound 693, (R)-6-cyclopropyl-2-(3-cyclopropyl-4-(3-methoxypropanoyl)piperazin-1-yl)-5-(2-vinylpyridin-4-yloxy)nicotinonitrile], the IC50 in the experiment on HT1080 cells, on IDH1 R132H and with U87MG cells was below 500 nM each time.
On to `N#Cc1cc(Oc2ccnc(Cl)c2)c(C2CC2)nc1N1CCN(C(=O)CCO)[C@H](C2CC2)C1` [Compound 694, (R)-5-(2-chloropyridin-4-yloxy)-6-cyclopropyl-2-(3-cyclopropyl-4-(3-hydroxypropanoyl)piperazin-1-yl) nicotinonitrile], for which the 50% inhibitory concentration (IC50) was 500 to 1000 nM with HT1080 cells, below 500 nM at IDH1 R132H and below 500 nM in the experiment on U87MG cells.
In the case of `COCCC(=O)N1CCN(c2nc(C3CC3)c(Oc3ccnc(Cl)c3)cc2C#N)C[C@H]1C1CC1` [Compound 695, (R)-5-((2-chloropyridin-4-yl)oxy)-6-cyclopropyl-2-(3-cyclopropyl-4-(3-methoxypropanoyl)piperazin-1-yl)nicotinonitrile], the IC50 in the experiment on HT1080 cells, on IDH1 R132H and in the experiment on U87MG cells was below 500 nM in each case.
In the case of `C=Cc1cnnc(-c2cc(C#N)c(N3CCN(C(=O)C4CC4)[C@H](C4CC4)C3)nc2C2CC2)c1` [Compound 696, (R)-2-(4-(cyclopropanecarbonyl)-3-cyclopropylpiperazin-1-yl)-6-cyclopropyl-5-(5-vinylpyridazin-3-yl)nicotinonitrile], the IC50 with HT1080 cells, on IDH1 R132H and in the experiment with U87MG cells was below 500 nM throughout.
`C=Cc1cc(Cc2cc(C#N)c(N3CCN(C(=O)CCO)[C@H](C4CC4)C3)nc2C2CC2)ccn1` [Compound 697, (R)-6-cyclopropyl-2-(3-cyclopropyl-4-(3-hydroxypropanoyl)piperazin-1-yl)-5-((2-vinylpyridin-4-yl)methyl)nicotinonitrile]: the IC50 with HT1080 cells, at IDH1 R132H and with U87MG cells was below 500 nM in each case.
On to `C=Cc1cc(Nc2cc(C#N)c(N3CCN(C(=O)CCO)[C@H](C)C3)nc2C2CC2)c2ccncc2n1` [Compound 698, (R)-6-cyclopropyl-2-(4-(3-hydroxypropanoyl)-3-methylpiperazin-1-yl)-5-((2-vinyl-1,7-naphthyridin-4-yl)amino)nicotinonitrile], for which the IC50 with HT1080 cells, at IDH1 R132H and in the experiment with U87MG cells was below 500 nM in each case.
As to `C=CC(=O)N(c1ccncc1)c1cc(C#N)c(N2CCN(C(=O)CCOC)[C@H](C)C2)nc1C1CC1` [Compound 702, (R)—N-(5-cyano-2-cyclopropyl-6-(4-(3-methoxypropanoyl)-3-methylpiperazin-1-yl)pyridin-3-yl)-N-(pyridin-4-yl) acryl amide], the IC50 with HT1080 cells was 1000 to 10000 nM; on IDH1 R132H it was below 500 nM; in the experiment with U87MG cells it was 1000 to 10000 nM.
Consider `C=Cc1cc(COc2cc(C#N)c(N3CCN(C(=O)CCOC)[C@H](C)C3)nc2C2CC2)ccn1` [Compound 703, (R)-6-cyclopropyl-2-(4-(3-methoxypropanoyl)-3-methylpiperazin-1-yl)-5-((2-vinylpyridin-4-yl)methoxy)nicotinonitrile], for which the IC50 in the experiment with HT1080 cells, on IDH1 R132H and in the experiment with U87MG cells was below 500 nM throughout.
In the case of `C=Cc1cc(Nc2cc(C#N)c(N3CCN(C(=O)CCOC)[C@H](C)C3)nc2C2CC2)c2cccnc2n1` [Compound 705, (R)-6-cyclopropyl-2-(4-(3-methoxypropanoyl)-3-methylpiperazin-1-yl)-5-(2-vinyl-1,8-naphthyridin-4-ylamino)nicotinonitrile], the IC50 with HT1080 cells, at IDH1 R132H and in the experiment on U87MG cells was below 500 nM in each case.
Take `C=Cc1ccnc(Nc2cc(C#N)c(N3CCN(C(=O)CCOC)[C@H](C4CC4)C3)nc2C2CC2)c1` [Compound 706, (R)-6-cyclopropyl-2-(3-cyclopropyl-4-(3-methoxypropanoyl)piperazin-1-yl)-5-((4-vinylpyridin-2-yl)amino)nicotinonitrile]: the IC50 in the experiment on HT1080 cells, at IDH1 R132H and in the experiment on U87MG cells was below 500 nM each time.
For the compound `C=Cc1ccnc(Nc2cc(C#N)c(N3CCN(C(=O)CCO)[C@H](C)C3)nc2C2CC2)c1` [Compound 707, (R)-6-cyclopropyl-2-(4-(3-hydroxypropanoyl)-3-methylpiperazin-1-yl)-5-((4-vinylpyridin-2-yl)amino)nicotinonitrile], the IC50 in the experiment with HT1080 cells, on IDH1 R132H and in the experiment with U87MG cells was below 500 nM throughout.
On to `C=Cc1ccc2ccc(-c3cc(C#N)c(N4CCN(C(=O)C5CC5)[C@H](C5CC5)C4)nc3C3CC3)cc2n1` [Compound 709, (R)-2-(4-(cyclopropanecarbonyl)-3-cyclopropylpiperazin-1-yl)-6-cyclopropyl-5-(2-vinylquinolin-7-yl) nicotinonitrile], for which the IC50 in the experiment on HT1080 cells, on IDH1 R132H and in the experiment with U87MG cells was below 500 nM each time.
For the compound `C=Cc1nccc2ccc(-c3cc(C#N)c(N4CCN(C(=O)C5CC5)[C@H](C5CC5)C4)nc3C3CC3)cc12` [Compound 710, (R)-2-(4-(cyclopropanecarbonyl)-3-cyclopropylpiperazin-1-yl)-6-cyclopropyl-5-(1-vinylisoquinolin-7-yl)nicotinonitrile], the IC50 with HT1080 cells, at IDH1 R132H and in the experiment with U87MG cells was below 500 nM throughout.
As for `C=Cc1cc(Nc2cc(C#N)c(N3CCN(C(=O)COC)[C@H](C4CC4)C3)nc2C2CC2)ccn1` [Compound 711, (R)-6-cyclopropyl-2-(3-cyclopropyl-4-(2-methoxyacetyl)piperazin-1-yl)-5-((2-vinylpyridin-4-yl)amino)nicotinonitrile], the IC50 in the experiment with HT1080 cells, at IDH1 R132H and in the experiment with U87MG cells was below 500 nM throughout.

Source of the values: US9856279B2 (AGIOS PHARMACEUTICALS, INC, priority 2011, dated 2018).
